Columns and labels:
[1] = molecular target: T1, PI3Kα (wild-type), P110/P85α (Homo sapiens, UniProt P42336); test: PI3 Kinase TR-FRET assay, PI3Kα (wild-type); type: biochemical
T1 construct: made in house; host or cells: SF9 insect cells
Procedure, shortened: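 Sf9-expressed His-purified P110/P85α (5 ng) preincubated 60 min RT with compound and PIP2 in buffer with 40 mM MgCl2, 5 mM DTT; reaction started with ATP (PIP2 and ATP both 10 μM), 30 min RT. PIP3 detected by TR-FRET displacement, 665/615 nm ratio; IC50 from dose-response curves.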

[2] = system: PC3 cells; test: XTT assay for cell viability, PC3 cells; type: cell-based, human; conditions: Homo sapiens, PC-3, cell viability
Procedure, shortened: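 PC3 cells seeded at 1000 cells/well, grown 24 h, then exposed to serial dilutions of compound for 96 h. Viability read by XTT dye at 37° C, absorbance 465 nm. EC50 from sigmoidal dose-response fit.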

[3] = molecular target: T2, mTOR kinase (Homo sapiens, UniProt P42345); test: mTOR kinase TR-FRET assay; type: biochemical; conditions: read-out: mTO R
T2 construct: purchased Millipore, USA
Procedure, shortened: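 Compounds preincubated 60 min with mTOR (5 ng) in HEPES pH 7.5, EGTA, MnCl2; ULight-p70 S6K Thr389 peptide (50 nM) and ATP (20 μM) then added, 60 min at room temperature. EDTA-stopped, Eu-anti-phospho antibody detection by TR-FRET (665/615 nm); IC50 from variable-slope sigmoidal fit.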

[4] = system: pS6RP(S235/236), PC3 cells; test: In-cell Western assay, pS6RP(S235/236) in PC3 cells; type: cell-based, human; conditions: Homo sapiens, PC-3, In-cell Western
Procedure, shortened: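 Overnight-seeded PC3 cells were treated 2 h with serially diluted compound, then fixed and immunostained with phospho-specific primary antibodies and Eu-labelled secondary. Time-resolved Eu signal read at 615 nm (ex 340 nm), normalised by Hoechst 33258 staining (ex 355/em 460 nm); IC50 from sigmoidal dose-response fit.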

T1 sequence (P42336 whole entry): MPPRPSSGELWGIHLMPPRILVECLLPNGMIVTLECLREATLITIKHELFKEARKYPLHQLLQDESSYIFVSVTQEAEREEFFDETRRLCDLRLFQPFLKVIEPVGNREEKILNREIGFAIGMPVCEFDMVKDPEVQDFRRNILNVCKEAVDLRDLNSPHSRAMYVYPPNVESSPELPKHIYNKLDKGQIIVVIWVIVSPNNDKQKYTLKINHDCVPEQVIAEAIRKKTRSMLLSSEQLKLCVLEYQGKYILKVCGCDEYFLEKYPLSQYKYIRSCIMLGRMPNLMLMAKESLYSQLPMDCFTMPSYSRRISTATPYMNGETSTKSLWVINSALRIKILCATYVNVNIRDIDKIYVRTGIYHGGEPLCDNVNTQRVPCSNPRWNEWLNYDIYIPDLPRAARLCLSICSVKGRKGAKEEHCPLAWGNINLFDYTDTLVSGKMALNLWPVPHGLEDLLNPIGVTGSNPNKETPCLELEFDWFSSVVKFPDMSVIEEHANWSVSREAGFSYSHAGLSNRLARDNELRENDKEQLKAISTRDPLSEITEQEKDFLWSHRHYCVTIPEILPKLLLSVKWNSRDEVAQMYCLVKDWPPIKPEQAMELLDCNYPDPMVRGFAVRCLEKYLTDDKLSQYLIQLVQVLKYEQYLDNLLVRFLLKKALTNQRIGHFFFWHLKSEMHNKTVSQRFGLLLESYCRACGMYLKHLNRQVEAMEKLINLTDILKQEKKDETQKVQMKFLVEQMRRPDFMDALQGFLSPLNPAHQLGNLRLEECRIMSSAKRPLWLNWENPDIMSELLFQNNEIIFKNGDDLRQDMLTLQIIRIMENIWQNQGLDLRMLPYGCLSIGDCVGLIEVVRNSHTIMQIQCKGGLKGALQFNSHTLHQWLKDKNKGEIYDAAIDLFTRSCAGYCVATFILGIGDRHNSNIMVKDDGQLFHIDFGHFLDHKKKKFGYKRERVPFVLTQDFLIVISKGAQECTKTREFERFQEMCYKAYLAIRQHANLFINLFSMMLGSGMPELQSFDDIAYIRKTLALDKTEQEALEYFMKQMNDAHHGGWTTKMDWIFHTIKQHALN
T1 sequence (P27986 whole entry partner): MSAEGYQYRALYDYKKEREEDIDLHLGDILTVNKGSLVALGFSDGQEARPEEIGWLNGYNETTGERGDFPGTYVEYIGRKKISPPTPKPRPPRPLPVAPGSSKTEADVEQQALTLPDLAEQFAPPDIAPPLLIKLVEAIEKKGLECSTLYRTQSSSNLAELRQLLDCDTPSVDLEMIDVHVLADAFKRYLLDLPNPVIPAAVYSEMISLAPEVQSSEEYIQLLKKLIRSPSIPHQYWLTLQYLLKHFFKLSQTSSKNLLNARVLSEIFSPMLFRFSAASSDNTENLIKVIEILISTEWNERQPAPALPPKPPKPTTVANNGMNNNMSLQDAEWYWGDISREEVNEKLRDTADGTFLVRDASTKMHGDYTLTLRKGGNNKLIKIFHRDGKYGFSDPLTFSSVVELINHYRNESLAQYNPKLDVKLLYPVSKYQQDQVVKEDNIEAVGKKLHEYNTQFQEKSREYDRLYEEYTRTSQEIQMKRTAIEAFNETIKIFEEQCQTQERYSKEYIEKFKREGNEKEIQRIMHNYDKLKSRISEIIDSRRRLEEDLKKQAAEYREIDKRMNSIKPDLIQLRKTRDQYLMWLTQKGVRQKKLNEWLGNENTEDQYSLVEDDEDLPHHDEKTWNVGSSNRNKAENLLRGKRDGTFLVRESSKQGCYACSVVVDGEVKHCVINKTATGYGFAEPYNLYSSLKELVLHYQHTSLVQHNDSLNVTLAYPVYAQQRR

Row | IC50 [1] [nM] | IC50 [2] [nM] | IC50 [3] [nM] | IC50 [4] [nM] | Compound
1 | 201 to 10000 | 201 to 10000 | < 50 | 201 to 10000 | O=C(Nc1ccc(C(=O)N2CCC(O)C2)cc1)Nc1ccc(-c2nc(N3CCOCC3)c3ccc(-c4cncnc4)cc3n2)cc1 (stereo not drawn) [Example 189, 1-(4-(3-hydroxypyrrolidine-1-carbonyl)phenyl)-3-(4-(4-morpholino-7-(pyrimidin-5-yl)quinazolin-2-yl)phenyl)urea]
2 | 50 to 200 | 201 to 10000 | < 50 | 201 to 10000 | CN(C)Cc1ccc(-c2ccc3c(N4CCOCC4)nc(-c4ccc(NC(=O)Nc5ccc(C(=O)N(C)C)cc5)cc4)nc3c2)o1 [Example 190, 4-(3-(4-(7-(5-((dimethylamino)methyl)furan-2-yl)-4-morpholino-quinazolin-2-yl)phenyl)ureido)-N,N-dimethyl-benzamide]
3 | < 50 | 201 to 10000 | < 50 | 201 to 10000 | N[C@H]1CCN(C(=O)c2ccc(NC(=O)Nc3ccc(-c4nc(N5CCOCC5)c5ccc(-c6cncnc6)cc5n4)cc3)cc2)C1 [Example 194, (S)-1-(4-(3-aminopyrrolidine-1-carbonyl)phenyl)-3-(4-(4-morpholino-7-(pyrimidin-5-yl)quinazolin-2-yl)phenyl)urea]
4 | < 50 | 201 to 10000 | < 50 | 201 to 10000 | CN(C)C(=O)c1ccc(NC(=O)Nc2ccc(-c3nc(N4CCOCC4)c4ccc(-c5ccc(CO)o5)cc4n3)cc2F)cc1 [Example 203, 4-(3-(2-fluoro-4-(7-(5-(hydroxymethyl)furan-2-yl)-4-morpholino-quinazolin-2-yl)phenyl)ureido)-N,N-dimethyl-benzamide]
5 | < 50 | < 100 | < 50 | < 100 | Cc1ccc(-c2ccc3c(N4CCOCC4)nc(-c4ccc(NC(=O)Nc5ccc(C(=O)N6CCC(O)C6)cc5)cc4)nc3c2)o1 (stereo not drawn) [Example 204, 1-(4-(3-hydroxypyrrolidine-1-carbonyl)phenyl)-3-(4-(7-(5-methylfuran-2-yl)-4-morpholino-quinazolin-2-yl)phenyl)urea]
6 | < 50 | 201 to 10000 | < 50 | 201 to 10000 | CN(C)[C@@H]1CCN(C(=O)c2ccc(NC(=O)Nc3ccc(-c4nc(N5CCOCC5)c5ncc(-c6cnn(C)c6)cc5n4)cc3F)cc2)C1 [Example 205, (R)-1-(4-(3-(dimethylamino)pyrrolidine-1-carbonyl)phenyl)-3-(2-fluoro-4-(7-(1-methyl-1H-pyrazol-4-yl)-4-morpholino-pyrido[3,2-d]pyrimidin-2-yl)phenyl)urea]
7 | < 50 | < 100 | < 50 | 201 to 10000 | CC(O)c1ccc(-c2ccc3c(N4CCOCC4)nc(-c4ccc(NC(=O)Nc5ccc(C(=O)N(C)C)cc5)c(F)c4)nc3c2)o1 (stereo not drawn) [Example 214, 4-(3-(2-fluoro-4-(7-(5-(1-hydroxyethyl)furan-2-yl)-4-morpholino-quinazolin-2-yl)phenyl)ureido)-N,N-dimethyl-benzamide]
8 | < 50 | 201 to 10000 | < 50 | 201 to 10000 | CC(O)c1ccc(-c2cnc3c(N4CCOCC4)nc(-c4ccc(NC(=O)Nc5ccc(C(=O)N(C)C)cc5)cc4)nc3c2)o1 (stereo not drawn) [Example 216, 4-(3-(4-(7-(5-(1-hydroxyethyl)furan-2-yl)-4-morpholino-pyrido[3,2-d]pyrimidin-2-yl)phenyl)ureido)-N,N-dimethyl-benzamide]

Further lines, the molecule ahead of its results:

Row | Compound | IC50 [1] [nM] | IC50 [2] [nM] | IC50 [3] [nM] | IC50 [4] [nM]
9 | COc1cc2nc(-c3ccc(NC(=O)Nc4ccc(C(=O)N(C)C)cc4)cc3)nc(N3CCOCC3)c2cc1OC [Example 181, 4-(3-(4-(6,7-dimethoxy-4-morpholino-quinazolin-2-yl)phenyl)ureido)-N,N-dimethyl-benzamide] | 50 to 200 | 201 to 10000 | < 50 | 201 to 10000
10 | CN(C)[C@@H]1CCN(C(=O)c2ccc(NC(=O)Nc3ccc(-c4nc(N5CCOCC5)c5ncc(-c6cnn(C)c6)cc5n4)cc3)cc2)C1 [Example 184, (R)-1-(4-(3-(dimethylamino)pyrrolidine-1-carbonyl)phenyl)-3-(4-(7-(1-methyl-1H-pyrazol-4-yl)-4-morpholino-pyrido[3,2-d]pyrimidin-2-yl)phenyl)urea] | < 50 | 201 to 10000 | < 50 | 201 to 10000
11 | CN(C)C1CCN(C(=O)c2ccc(NC(=O)Nc3ccc(-c4nc(N5CCOCC5)c5ncc(-c6cnn(C)c6)cc5n4)cc3)cc2)CC1 [Example 186, 1-(4-(4-(dimethylamino)piperidine-1-carbonyl)phenyl)-3-(4-(7-(1-methyl-1H-pyrazol-4-yl)-4-morpholino-pyrido[3,2-d]pyrimidin-2-yl)phenyl)urea] | < 50 | 201 to 10000 | < 50 | 201 to 10000
12 | CN(C)[C@@H]1CCN(C(=O)c2ccc(NC(=O)Nc3ccc(-c4nc(N5CCOCC5)c5ccc(-c6cncnc6)cc5n4)cc3)cc2)C1 [Example 187, (R)-1-(4-(3-(dimethylamino)pyrrolidine-1-carbonyl)phenyl)-3-(4-(4-morpholino-7-(pyrimidin-5-yl)quinazolin-2-yl)phenyl)urea] | < 50 | 201 to 10000 | < 50 | 201 to 10000
13 | Cc1ccc(-c2ccc3c(N4CCOCC4)nc(-c4ccc(NC(=O)Nc5ccc(C(=O)N6CCC(N(C)C)CC6)cc5)cc4)nc3c2)o1 [Example 191, 1-(4-(4-(dimethylamino)piperidine-1-carbonyl)phenyl)-3-(4-(7-(5-methylfuran-2-yl)-4-morpholino-quinazolin-2-yl)phenyl)urea] | 201 to 10000 | 201 to 10000 | 50 to 200 | 201 to 10000
14 | Cc1ccncc1-c1ccc2c(N3CCOCC3)nc(-c3ccc(NC(=O)Nc4ccc(C(=O)N5CCC(N(C)C)CC5)cc4)cc3)nc2c1 [Example 193, 1-(4-(4-(dimethylamino)piperidine-1-carbonyl)phenyl)-3-(4-(7-(4-methylpyridin-3-yl)-4-morpholino-quinazolin-2-yl)phenyl)urea] | < 50 | 201 to 10000 | < 50 | 201 to 10000
15 | N[C@@H]1CCN(C(=O)c2ccc(NC(=O)Nc3ccc(-c4nc(N5CCOCC5)c5ccc(-c6cncnc6)cc5n4)cc3)cc2)C1 [Example 197, (R)-1-(4-(3-aminopyrrolidine-1-carbonyl)phenyl)-3-(4-(4-morpholino-7-(pyrimidin-5-yl)quinazolin-2-yl)phenyl)urea] | < 50 | 201 to 10000 | < 50 | 201 to 10000
16 | Cc1ccc(-c2ccc3c(N4CCOCC4)nc(-c4ccc(NC(=O)Nc5ccc(C(=O)NCCN(C)C)cc5)cc4)nc3c2)o1 [Example 201, N-(2-(dimethylamino)ethyl)-4-(3-(4-(7-(5-methylfuran-2-yl)-4-morpholino-quinazolin-2-yl)phenyl)ureido)-benzamide] | 50 to 200 | 501 to 5000 | < 50 | 501 to 5000
17 | Cn1cc(-c2cnc3c(N4CCOCC4)nc(-c4ccc(NC(=O)Nc5ccc(C(N)=O)cc5)cc4)nc3c2)cn1 [Example 202, 4-(3-(4-(7-(1-methyl-1H-pyrazol-4-yl)-4-morpholino-pyrido[3,2-d]pyrimidin-2-yl)phenyl)ureido)-benzamide] | < 50 | 201 to 10000 | < 50 | 201 to 10000
18 | CC(O)c1ccc(-c2ccc3c(N4CCOCC4)nc(-c4ccc(NC(=O)Nc5ccc(C(=O)N(C)C)cc5)cc4)nc3c2)o1 (stereo not drawn) [Example 206, 4-(3-(4-(7-(5-(1-hydroxyethyl)furan-2-yl)-4-morpholino-quinazolin-2-yl)phenyl)ureido)-N,N-dimethyl-benzamide] | < 50 | 201 to 10000 | < 50 | 201 to 10000
19 | CN1CCN(C(=O)c2ccc(NC(=O)Nc3ccc(-c4nc(N5CCOCC5)c5cc(F)c(-c6cccnc6)cc5n4)cc3F)cc2)CC1 [Example 211, 1-(2-fluoro-4-(6-fluoro-4-morpholino-7-(pyridin-3-yl)quinazolin-2-yl)phenyl)-3-(4-(4-methylpiperazine-1-carbonyl)phenyl)urea] | < 50 | < 100 | < 50 | 201 to 10000
20 | CNC(=O)c1ccc(NC(=O)Nc2ccc(-c3nc(N4CCOCC4)c4ccc(-c5cncnc5)cc4n3)cc2F)cc1 [Example 215, 4-(3-(2-fluoro-4-(4-morpholino-7-(pyrimidin-5-yl)quinazolin-2-yl)phenyl)ureido)-N-methyl-benzamide] | 50 to 200 | 201 to 10000 | 50 to 200 | 201 to 10000
21 | CN(C)CCNC(=O)c1ccc(NC(=O)Nc2ccc(-c3nc(N4CCOCC4)c4ccc(-c5cncnc5)cc4n3)cc2F)cc1 [Example 217, N-(2-(dimethylamino)ethyl)-4-(3-(2-fluoro-4-(4-morpholino-7-(pyrimidin-5-yl)quinazolin-2-yl)phenyl)ureido)-benzamide] | < 50 | 201 to 10000 | < 50 | 201 to 10000
